In general, CC50 refers to the concentration at which the toxic effect on the cells reaches its halfway point. Read a low CC50 as harm at low concentration. One may read the IC50 as the midpoint of a concentration-inhibition curve.

Series [1] deals with Huh-7, CRFK, or CCL1 cells.
The target in series [2] is SARS-CoV-2 3CLpro (Severe acute respiratory syndrome coronavirus 2 (2019-nCoV) (SARS-CoV-2), UniProt P0DTD1). Description: biochemical. In kind it is biochemical. The note with it: for IC50: read-out: IC50.
Series [3] deals with MERS-CoV 3CLpro (Middle East respiratory syndrome-related coronavirus (isolate United Kingdom/H123990006/2012) (MERS-CoV) (Betacoronavirus England 1), UniProt K9N7C7). The series is classed as biochemical.
Series [4] has as its system CRFK cells. The note with it: cat.

Molecules are shown by their SMILES. A value given as a limit tells only on which side of the number the result lay.

Sequence of MERS-CoV 3CLpro (K9N7C7 3248-3553 limits assumed): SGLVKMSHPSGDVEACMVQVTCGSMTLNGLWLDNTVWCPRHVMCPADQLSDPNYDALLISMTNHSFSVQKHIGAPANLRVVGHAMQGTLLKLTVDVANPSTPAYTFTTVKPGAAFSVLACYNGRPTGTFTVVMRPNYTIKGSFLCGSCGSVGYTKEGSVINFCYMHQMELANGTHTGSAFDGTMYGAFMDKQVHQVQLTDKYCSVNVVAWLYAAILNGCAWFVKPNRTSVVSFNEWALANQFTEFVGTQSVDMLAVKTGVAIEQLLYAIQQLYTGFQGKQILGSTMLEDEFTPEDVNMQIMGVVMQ

On to `[2H]C([2H])(OC(=O)N[C@@H](CC(C)C)C(=O)N[C@H](C=O)C[C@@H]1CCNC1=O)[C@@H]1C[C@@H]2C=CC[C@@H](C2)C1` [Compound 2d, ((1S,3S,5R)-Bicyclo[3.3.1]non-6-en-3-yl)methyl-d2 ((S)-4-methyl-1-oxo-1-(((S)-1-oxo-3-((S)-2-oxopyrrolidin-3-yl)propan-2-yl)amino)pentan-2-yl)carbamate], for which the cytotoxic concentration (CC50) in series [1] is over 100000 nM. For the same compound, in series [2], the IC50 was determined as 280 ± 80 nM.
For the compound `CC(C)C[C@H](NC(=O)OCC1CC2C=CC1C2)C(=O)N[C@H](C=O)C[C@@H]1CCNC1=O` (stereo partly drawn) [Compound 2e, Bicyclo[2.2.1]hept-5-en-2-ylmethyl ((S)-4-methyl-1-oxo-1-(((S)-1-oxo-3-((S)-2-oxopyrrolidin-3-yl)propan-2-yl)amino)pentan-2-yl)carbamate], the CC50 in series [1] was over 100000 nM. In addition, the IC50 in series [2] was determined as 260 ± 50 nM.
In series [1], `CC(C)C[C@H](NC(=O)OCC1CC2CCC1C2)C(=O)N[C@H](C=O)C[C@@H]1CCNC1=O` (stereo partly drawn) [Compound 2f, Bicyclo[2.2.1]heptan-2-ylmethyl ((S)-4-methyl-1-oxo-1-(((S)-1-oxo-3-((S)-2-oxopyrrolidin-3-yl)propan-2-yl)amino)pentan-2-yl)carbamate] registered a CC50 of over 100000 nM. The IC50 in series [2] stood at 140 ± 20 nM; in series [3], 63 ± 3 nM.
Compound `CC(C)C[C@H](NC(=O)O[C@@H]1C[C@H]2CC[C@@H](C1)N2C(=O)OC(C)(C)C)C(=O)N[C@H](C=O)C[C@@H]1CCNC1=O` [Compound 2g, tert-Butyl (1R,3s,5S)-3-((((S)-4-methyl-1-oxo-1-(((S)-1-oxo-3-((S)-2-oxopyrrolidin-3-yl)propan-2-yl)amino)pentan-2-yl)carbamoyl)oxy)-8-azabicyclo[3.2.1]octane-8-carboxylate] registered a 50% cytotoxic concentration (CC50) in series [1] of over 100000 nM. The half-maximal inhibitory concentration (IC50) in series [2] is 1900 ± 140 nM.
With `CC(C)C[C@H](NC(=O)O[C@@H]1C[C@H]2CC[C@@H](C1)N2C(=O)OCc1ccccc1)C(=O)N[C@H](C=O)C[C@@H]1CCNC1=O` [Compound 2h, Benzyl (1R,3s,5S)-3-((((S)-4-methyl-1-oxo-1-(((S)-1-oxo-3-((S)-2-oxopyrrolidin-3-yl)propan-2-yl)amino)pentan-2-yl)carbamoyl)oxy)-8-azabicyclo[3.2.1]octane-8-carboxylate], the CC50 in series [1] was over 100000 nM. The IC50 in series [2] turned out to be 390 ± 20 nM.
`[2H]C([2H])(OC(=O)N[C@@H](CC(C)C)C(=O)N[C@H](C=O)C[C@@H]1CCNC1=O)C12CCC(CCCCC)(CC1)CC2` [Compound 2j, (4-Pentylbicyclo[2.2.2]octan-1-yl)methyl-d2 ((S)-4-methyl-1-oxo-1-(((S)-1-oxo-3-((S)-2-oxopyrrolidin-3-yl)propan-2-yl)amino)pentan-2-yl)carbamate] gave a CC50 in series [1] of 20000 ± 3000 nM. Also, the 50% inhibitory concentration (IC50) in series [2] was 310 ± 30 nM.
Take `CC(C)C[C@H](NC(=O)OCC12CC3CC(CC(C3)C1)C2)C(=O)N[C@H](C=O)C[C@H]1CCNC1=O` [Compound 2k, ((3S,5S,7S)-Adamantan-1-yl)methyl((S)-4-methyl-1-oxo-1-(((S)-1-oxo-3-((S)-2-oxopyrrolidin-3-yl)propan-2-yl)amino)pentan-2-yl)carbamate]: in series [1], the CC50 is over 100000 nM. The results for the 50% inhibitory concentration (IC50) in series [2] and in series [3] were 180 ± 40 nM and 55 ± 2 nM, respectively.
As for `CC(C)C[C@H](NC(=O)OCCC12CC3CC(CC(C3)C1)C2)C(=O)N[C@H](C=O)C[C@H]1CCNC1=O` [Compound 2m, 2-((3S,5S,7S)-Adamantan-1-yl)ethyl ((S)-4-methyl-1-oxo-1-(((S)-1-oxo-3-((S)-2-oxopyrrolidin-3-yl)propan-2-yl)amino)pentan-2-yl)carbamate], the cytotoxic concentration (CC50) in series [1] is over 100000 nM. Besides, the IC50 in series [2] stood at 270 ± 20 nM.
With `CC(C)C[C@H](NC(=O)OC[C@@]12C[C@@H]3C[C@@H](C[C@@](O)(C3)C1)C2)C(=O)N[C@H](C=O)C[C@@H]1CCNC1=O` [Compound 2n, ((1r,3R,5R,7S)-3-Hydroxyadamantan-1-yl)methyl ((S)-4-methyl-1-oxo-1-(((S)-1-oxo-3-((S)-2-oxopyrrolidin-3-yl)propan-2-yl)amino)pentan-2-yl)carbamate], the CC50 in series [1] is over 100000 nM. In series [2], the “decrease in potency compared to 2k/3k” value is reported as about 5 fold and the IC50 turned out to be 820 ± 190 nM.
With `[2H]C([2H])(OC(=O)N[C@@H](CC(C)C)C(=O)N[C@@H](C[C@@H]1CCNC1=O)C(O)S(=O)(=O)[O-])[C@@H]1C[C@@H]2C=CC[C@@H](C2)C1.[Na+]` (stereo partly drawn) [Compound 3d, Sodium (2S)-2-((S)-2-(((((1S,3S,5R)-bicyclo[3.3.1]non-6-en-3-yl)methoxy-d2)carbonyl)amino)-4-methylpentanamido)-1-hydroxy-3-((S)-2-oxopyrrolidin-3-yl)propane-1-sulfonate], the CC50 in series [1] is over 100000 nM. For the same compound, the half-inhibitory concentration (IC50) in series [2] was found to be 300 ± 30 nM.
In turn, `CC(C)C[C@H](NC(=O)OCC1CC2C=CC1C2)C(=O)N[C@@H](C[C@@H]1CCNC1=O)C(O)S(=O)(=O)O` (stereo partly drawn) [Compound 3e, Sodium (2S)-2-((2S)-2-(((bicyclo[2.2.1]hept-5-en-2-ylmethoxy)carbonyl)amino)-4-methylpentanamido)-1-hydroxy-3-((S)-2-oxopyrrolidin-3-yl)propane-1-sulfonate] came in with a CC50 in series [1] of over 100000 nM. Further, the IC50 in series [2] turned out to be 280 ± 30 nM.
The compound `CC(C)C[C@H](NC(=O)OCC1CC2CCC1C2)C(=O)N[C@@H](C[C@@H]1CCNC1=O)C(O)S(=O)(=O)O` (stereo partly drawn) [Compound 3f, Sodium (2S)-2-((2S)-2-(((bicyclo[2.2.1]heptan-2-ylmethoxy)carbonyl)amino)-4-methylpentanamido)-1-hydroxy-3-((S)-2-oxopyrrolidin-3-yl)propane-1-sulfonate] showed a cytotoxic concentration (CC50) in series [1] of over 100000 nM. Also, the figures for the IC50 in series [2] and in series [3] were 100 ± 10 nM and 58 ± 2 nM, respectively.
In series [1], `CC(C)C[C@H](NC(=O)OC1CC2CCC(C1)N2C(=O)OC(C)(C)C)C(=O)N[C@@H](C[C@H]1CCNC1=O)C(O)S(=O)(=O)O` (stereo partly drawn) [Compound 3g, Sodium (2S)-2-((S)-2-(((((1R,3s,5S)-8-(tert-butoxycarbonyl)-8-azabicyclo[3.2.1]octan-3-yl)oxy)carbonyl)amino)-4-methylpentanamido)-1-hydroxy-3-((S)-2-oxopyrrolidin-3-yl)propane-1-sulfonate] came in with a CC50 of over 100000 nM. Also, the IC50 in series [2] is 1710 ± 160 nM.
`CC(C)C[C@H](NC(=O)OC1CC2CCC(C1)N2C(=O)OCc1ccccc1)C(=O)N[C@@H](C[C@H]1CCNC1=O)C(O)S(=O)(=O)O` (stereo partly drawn) [Compound 3h, Sodium (2S)-2-((S)-2-(((((1R,3s,5S)-8-((benzyloxy)carbonyl)-8-azabicyclo[3.2.1]octan-3-yl)oxy)carbonyl)amino)-4-methylpentanamido)-1-hydroxy-3-((S)-2-oxopyrrolidin-3-yl)propane-1-sulfonate]: the CC50 in series [1] is over 100000 nM. Moreover, in series [2], the half-maximal inhibitory concentration (IC50) worked out at 370 ± 30 nM.
`CC(C)C[C@H](NC(=O)OCC12CC3CC(CC(C3)C1)C2)C(=O)N[C@@H](C[C@H]1CCNC1=O)C(O)S(=O)(=O)O` (stereo partly drawn) [Compound 3k, Sodium (2S)-2-((S)-2-(((((3S,5S,7S)-adamantan-1-yl)methoxy)carbonyl)amino)-4-methylpentanamido)-1-hydroxy-3-((S)-2-oxopyrrolidin-3-yl)propane-1-sulfonate]: the 50% cytotoxic concentration (CC50) in series [1] is over 100000 nM. Moreover, the IC50 in series [2] was found to be 150 ± 40 nM; in series [3], 53 ± 3 nM.
Take `CC(C)C[C@H](NC(=O)OCCC12CC3CC(CC(C3)C1)C2)C(=O)N[C@@H](C[C@H]1CCNC1=O)C(O)S(=O)(=O)O` (stereo partly drawn) [Compound 3m, Sodium (2S)-2-((S)-2-(((2-((3S,5S,7S)-adamantan-1-yl)ethoxy)carbonyl)amino)-4-methylpentanamido)-1-hydroxy-3-((S)-2-oxopyrrolidin-3-yl)propane-1-sulfonate]: the 50% cytotoxic concentration (CC50) in series [1] was over 100000 nM. The 50% inhibitory concentration (IC50) in series [2] was found to be 250 ± 40 nM.
In series [1], `CC(C)C[C@H](NC(=O)OCC12CC3CC(CC(O)(C3)C1)C2)C(=O)N[C@@H](C[C@H]1CCNC1=O)C(O)S(=O)(=O)[O-].[Na+]` (stereo partly drawn) [Compound 3n, Sodium (2S)-1-hydroxy-2-((S)-2-(((((1r,3R,5R,7S)-3-hydroxyadamantan-1-yl)methoxy)carbonyl)amino)-4-methylpentanamido)-3-((S)-2-oxopyrrolidin-3-yl)propane-1-sulfonate] registered a 50% cytotoxic concentration (CC50) of over 100000 nM. Further, in series [2], the “decrease in potency compared to 2k/3k” value is given as about 5 fold and the IC50 worked out at 1030 ± 240 nM.
As for `CC(C)C[C@H](NC(=O)OCC1CN(C(=O)C2CC3CCC2C3)C1)C(=O)N[C@@H](C[C@H]1CCNC1=O)C(O)S(=O)(=O)O` (stereo partly drawn) [Compound 16c, Sodium (2S)-2-((2S)-2-((((1-(bicyclo[2.2.1]heptane-2-carbonyl)azetidin-3-yl)methoxy)carbonyl)amino)-4-methylpentanamido)-1-hydroxy-3-((R)-2-oxopyrrolidin-3-yl)propane-1-sulfonate], in series [4], the half-maximal cytotoxic concentration (CC50) is over 100000 nM.
With `CC(C)C[C@H](NC(=O)OCC1CN(S(C)(=O)=O)C1)C(=O)N[C@H](C=O)C[C@H]1CCNC1=O` [Compound 17b, (1-(Methylsulfonyl)azetidin-3-yl)methyl ((S)-4-methyl-1-oxo-1-(((S)-1-oxo-3-((R)-2-oxopyrrolidin-3-yl)propan-2-yl)amino)pentan-2-yl)carbamate], the CC50 in series [4] was over 100000 nM.
In series [4], `CC(C)C[C@H](NC(=O)OCC1CN(S(C)(=O)=O)C1)C(=O)N[C@@H](C[C@H]1CCNC1=O)C(O)S(=O)(=O)O` (stereo partly drawn) [Compound 17c, Sodium (2S)-1-hydroxy-2-((S)-4-methyl-2-((((1-(methylsulfonyl)azetidin-3-yl)methoxy)carbonyl)amino)pentanamido)-3-((R)-2-oxopyrrolidin-3-yl)propane-1-sulfonate] returned a 50% cytotoxic concentration (CC50) of over 100000 nM.

(Values after patent publication US20240307419A1, “CONFORMATIONALLY-CONSTRAINED INHIBITORS OF 3C OR 3C-LIKE PROTEASES” (priority 2021, published 2024).)
